US20250154686A1, “COMPOUND LIBRARY” (CHUGAI SEIYAKU KABUSHIKI KAISHA, priority 2021, published 2025)

Biological target: T1, Bcl-2 protein (Recombinant Human Bcl-2 Protein) (Homo sapiens, UniProt P10415)
T1 construct: purchased Novus Biologicals NBP2-34889
Assay: AS-MS evaluation of binding of the Example 4 mixture library (1200 compounds/well) to Bcl-2, ASMS ratio (%)
How it was run: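 Affinity-selection MS: after spin-column size exclusion and organic extraction, LC/MS signals give an ASMS ratio (%), referenced to protein-free samples with and without column treatment. Binding step combined 20 μM human Bcl-2 with the 1200-compound pool at 20 nM per compound, 1 h, 23° C., dark, pH 7.4 Tris-HCl/NaCl/Tween-20/DTT.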

[1] = AS-MS, Example 4 mixture library, Bcl-2, replicate n = 1
[2] = AS-MS, Example 4 mixture library, Bcl-2, replicate n = 2
[3] = AS-MS, mixture of 1200 compounds/well, Bcl-2 protein, replicate n = 1
[4] = replicate n = 1, mixture library, value belongs to the MS peak assigned to the compound
[5] = replicate n = 2, mixture library, value belongs to the MS peak assigned to the compound

T1 sequence (P10415 whole entry): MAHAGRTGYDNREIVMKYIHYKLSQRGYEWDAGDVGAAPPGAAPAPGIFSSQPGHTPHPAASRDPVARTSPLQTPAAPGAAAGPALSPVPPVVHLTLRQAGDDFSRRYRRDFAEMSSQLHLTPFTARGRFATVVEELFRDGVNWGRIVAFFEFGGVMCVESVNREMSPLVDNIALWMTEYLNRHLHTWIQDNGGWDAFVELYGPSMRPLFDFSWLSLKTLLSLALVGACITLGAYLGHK

CCOc1cncc(-c2ccc(C(C)N3CCN(c4ccc(C(=O)NS(=O)(=O)c5ccc(NCCSc6ccccc6)c(C(F)(F)F)c5)cc4)CC3)c(F)c2)c1 (stereo not drawn) [Compound B2R100-01, 4-[4-[1-[4-(5-Ethoxypyridin-3-yl)-2-fluorophenyl]ethyl]piperazin-1-yl]-N-[4-(2-phenylsulfanylethylamino)-3-(trifluoromethyl)phenyl]sulfonylbenzamide]
ASMS ratio (%) n = 1 [1]: 0.6%
ASMS ratio (%) n = 2 [2]: 10.1%

CCOc1cccc(-c2cc(C(=O)N3CCN(c4ccc(C(=O)NS(=O)(=O)c5ccc(NCCSc6ccccc6)c(C(F)(F)F)c5)nn4)CC3)cc(C(C)(C)C)c2)c1 [Compound B2R015-01, 6-[4-[3-tert-Butyl-5-(3-ethoxyphenyl)benzoyl]piperazin-1-yl]-N-[4-(2-phenylsulfanylethylamino)-3-(trifluoromethyl)phenyl]sulfonylpyridazine-3-carboxamide]
ASMS ratio (%) n = 1 [1]: 9.7%
ASMS ratio (%) n = 2 [2]: 0.0%

CCCNC(=O)c1ccc(N2CCN(Cc3ccc(-c4cccc(OCC)c4)c(F)c3)CC2)nn1 [Compound B1M077-01]
ASMS ratio (%) n = 1 [3]: −0.7%
ASMS ratio (%) n = 2 (AS-MS, mixture of 1200 compounds/well, Bcl-2 protein, replicate n = 2): 3.1%

CCOc1cncc(-c2ccc(CN3CCN(c4ccc(C(=O)NS(C)(=O)=O)nn4)CC3)cc2C)c1 [Compound B2I074-01, 6-[4-[[4-(5-Ethoxypyridin-3-yl)-3-methylphenyl]methyl]piperazin-1-yl]-N-methylsulfonylpyridazine-3-carboxamide]
ASMS ratio (%) n = 1 [4]: 0.0%
ASMS ratio (%) n = 2 [5]: −8.4%

CCOc1cccc(-c2cc(CN3CCN(c4ccc(C(=O)NCC56CC7CC(CC(C7)C5)C6)nn4)CC3)cc(OCC)c2)c1 [Compound B1A081-01, N-(1-Adamantylmethyl)-6-[4-[[3-ethoxy-5-(3-ethoxyphenyl)phenyl]methyl]piperazin-1-yl]pyridazine-3-carboxamide]
ASMS ratio (%) n = 2 (mixture library of 1200 compounds/well, Bcl-2 protein, replicate n = 2, compounds assigned by expected m/z): −5. %

CCOc1cncc(-c2cc(CN3CCN(c4ccc(C(=O)NS(=O)(=O)c5ccc(NCCSc6ccccc6)c(C(F)(F)F)c5)nn4)CC3)cc(OCC)c2)c1 [Compound B2R082-01]
ASMS ratio (%) n = 1 [1]: 0.0%
ASMS ratio (%) n = 2 [2]: 0.0%

CCOc1cncc(-c2cc(C(=O)N3CCN(c4ccc(C(=O)NS(=O)(=O)C(C)(C)C)cc4)CC3)cc(C(C)(C)C)c2)c1 [Compound B2L038-01, 4-[4-[3-tert-Butyl-5-(5-ethoxypyridin-3-yl)benzoyl]piperazin-1-yl]-N-tert-butylsulfonylbenzamide]
ASMS ratio (%) n = 1 [4]: 0.0%
ASMS ratio (%) n = 2 [5]: 0.0%

CCOc1cncc(-c2cc(C(=O)N3CCN(c4ccc(C(=O)NS(=O)(=O)c5ccc(NCCSc6ccccc6)c(C(F)(F)F)c5)nn4)CC3)cc(C(C)(C)C)c2)c1 [Compound B2R016-01, 6-[4-[3-tert-Butyl-5-(5-ethoxypyridin-3-yl)benzoyl]piperazin-1-yl]-N-[4-(2-phenylsulfanylethylamino)-3-(trifluoromethyl)phenyl]sulfonylpyridazine-3-carboxamide]
ASMS ratio (%) n = 1 [1]: 9.1%
ASMS ratio (%) n = 2 [2]: 2.7%

CCOc1cncc(-c2csc(CN3CCN(c4ccc(C(=O)NS(=O)(=O)C(C)(C)C)cc4)CC3)c2)c1 [Compound B2L068-01]
ASMS ratio (%) n = 1 [4]: 0.0%
ASMS ratio (%) n = 2 [5]: 0.0%

CCOc1cncc(-c2ccc(CN3CCN(c4ccc(C(=O)NS(=O)(=O)c5ccc(NCCSc6ccccc6)c(C(F)(F)F)c5)nn4)CC3)c3ccccc23)c1 [Compound B2R092-01, 6-[4-[[4-(5-Ethoxypyridin-3-yl)naphthalen-1-yl]methyl]piperazin-1-yl]-N-[4-(2-phenylsulfanylethylamino)-3-(trifluoromethyl)phenyl]sulfonylpyridazine-3-carboxamide]
ASMS ratio (%) n = 1 [1]: 16.0%
ASMS ratio (%) n = 2 [2]: −1.3%

CCOc1cncc(C#Cc2cncc(C(=O)N3CCN(c4ccc(C(=O)NS(=O)(=O)CCC(F)(F)F)nn4)CC3)c2)c1 [Compound B2N010-01, 6-[4-[5-[2-(5-Ethoxypyridin-3-yl)ethynyl]pyridine-3-carbonyl]piperazin-1-yl]-N-(3,3,3-trifluoropropylsulfonyl)pyridazine-3-carboxamide]
ASMS ratio (%) n = 1 [1]: 0.0%
ASMS ratio (%) n = 2 [2]: 0.0%

CCOc1cncc(-c2ccc(CN3CCN(c4ccc(C(=O)NS(C)(=O)=O)cc4)CC3)cc2F)c1 [Compound B2I052-01, 4-[4-[[4-(5-Ethoxypyridin-3-yl)-3-fluorophenyl]methyl]piperazin-1-yl]-N-methylsulfonylbenzamide]
ASMS ratio (%) n = 1 [4]: 0.0%
ASMS ratio (%) n = 2 [5]: 0.0%

CCOc1cncc(-c2cnn(-c3cc(C(=O)N4CCN(c5ccc(C(=O)NS(=O)(=O)C(C)(C)C)cc5)CC4)cc(C(F)(F)F)c3)c2)c1 [Compound B2L044-01, N-tert-Butylsulfonyl-4-[4-[3-[4-(5-ethoxypyridin-3-yl)pyrazol-1-yl]-5-(trifluoromethyl)benzoyl]piperazin-1-yl]benzamide]
ASMS ratio (%) n = 1 [4]: 0.0%
ASMS ratio (%) n = 2 [5]: 0.0%

CCOc1cncc(-c2ccccc2CCC(=O)N2CCN(c3ccc(C(=O)NS(=O)(=O)C(C)(C)C)nn3)CC2)c1 [Compound B2L012-01]
ASMS ratio (%) n = 1 [4]: 4.3%
ASMS ratio (%) n = 2 [5]: 7.3%

CCOc1cccc(-c2cc(OC)c(CN3CCN(c4ccc(C(=O)NS(=O)(=O)CCC(F)(F)F)cc4)CC3)c(OC)c2)c1 [Compound B2N059-01, 4-[4-[[4-(3-Ethoxyphenyl)-2,6-dimethoxyphenyl]methyl]piperazin-1-yl]-N-(3,3,3-trifluoropropylsulfonyl)benzamide]
ASMS ratio (%) n = 1 [1]: 0.0%
ASMS ratio (%) n = 2 [2]: 0.0%

CCOc1cncc(-c2cc(CN3CCN(c4ccc(C(=O)NS(=O)(=O)CCC(F)(F)F)nn4)CC3)cc(OCC)c2)c1 [Compound B2N082-01, 6-[4-[[3-Ethoxy-5-(5-ethoxypyridin-3-yl)phenyl]methyl]piperazin-1-yl]-N-(3,3,3-trifluoropropylsulfonyl)pyridazine-3-carboxamide]
ASMS ratio (%) n = 1 [1]: 2.5%
ASMS ratio (%) n = 2 [2]: 2.8%

CCOc1cncc(-c2cc(CN3CCN(c4ccc(C(=O)NS(C)(=O)=O)nn4)CC3)cc(OC(F)(F)F)c2)c1 [Compound B2I090-01, 6-[4-[[3-(5-Ethoxypyridin-3-yl)-5-(trifluoromethoxy)phenyl]methyl]piperazin-1-yl]-N-methylsulfonylpyridazine-3-carboxamide]
ASMS ratio (%) n = 1 [4]: 0.0%
ASMS ratio (%) n = 2 [5]: 0.0%

CCOc1cncc(-c2ccc(CN3CCN(c4ccc(C(=O)NS(C)(=O)=O)nn4)CC3)c(CC)c2)c1 [Compound B2I076-01, 6-[4-[[4-(5-Ethoxypyridin-3-yl)-2-ethylphenyl]methyl]piperazin-1-yl]-N-methylsulfonylpyridazine-3-carboxamide]
ASMS ratio (%) n = 1 [4]: 0.2%
ASMS ratio (%) n = 2 [5]: −3.2%

CCOc1cncc(-c2ccc(C(C)N3CCN(c4ccc(C(=O)NS(=O)(=O)CCC(F)(F)F)cc4)CC3)cc2)c1 (stereo not drawn) [Compound B2N098-01, 4-[4-[1-[4-(5-Ethoxypyridin-3-yl)phenyl]ethyl]piperazin-1-yl]-N-(3,3,3-trifluoropropylsulfonyl)benzamide]
ASMS ratio (%) n = 1 [1]: 0.0%
ASMS ratio (%) n = 2 [2]: −0.7%

CCOc1cccc(-c2cc(CN3CCN(c4ccc(C(=O)NS(=O)(=O)c5ccc(NCCSc6ccccc6)c(C(F)(F)F)c5)cc4)CC3)cc(C(F)(F)F)c2)c1 [Compound B2R061-01, 4-[4-[[3-(3-Ethoxyphenyl)-5-(trifluoromethyl)phenyl]methyl]piperazin-1-yl]-N-[4-(2-phenylsulfanylethylamino)-3-(trifluoromethyl)phenyl]sulfonylbenzamide]
ASMS ratio (%) n = 1 [1]: 9.1%
ASMS ratio (%) n = 2 [2]: −6.0%

CCOc1cccc(-c2ccccc2CN2CCN(c3ccc(C(=O)NS(C)(=O)=O)cc3)CC2)c1 [Compound B2I045-01, 4-[4-[[2-(3-Ethoxyphenyl)phenyl]methyl]piperazin-1-yl]-N-methylsulfonylbenzamide]
ASMS ratio (%) n = 1 [4]: −0.3%
ASMS ratio (%) n = 2 [5]: 0.2%

CCOc1cncc(-c2cc(CN3CCN(c4ccc(C(=O)NS(=O)(=O)c5ccc(NCCSc6ccccc6)c(C(F)(F)F)c5)cc4)CC3)cc(OC(F)(F)F)c2)c1 [Compound B2R064-01, 4-[4-[[3-(5-Ethoxypyridin-3-yl)-5-(trifluoromethoxy)phenyl]methyl]piperazin-1-yl]-N-[4-(2-phenylsulfanylethylamino)-3-(trifluoromethyl)phenyl]sulfonylbenzamide]
ASMS ratio (%) n = 1 [1]: 4.2%
ASMS ratio (%) n = 2 [2]: −7.4%

CCOc1cncc(-c2ccc(CN3CCN(c4ccc(C(=O)NS(=O)(=O)C(C)(C)C)cc4)CC3)c(CC)c2)c1 [Compound B2L050-01, N-tert-Butylsulfonyl-4-[4-[[4-(5-ethoxypyridin-3-yl)-2-ethylphenyl]methyl]piperazin-1-yl]benzamide]
ASMS ratio (%) n = 1 [4]: 0.0%
ASMS ratio (%) n = 2 [5]: 0.0%

CCOc1cncc(-c2cc(CN3CCN(c4ccc(C(=O)NS(C)(=O)=O)nn4)CC3)cc(C(F)(F)F)c2)c1 [Compound B2I088-01, 6-[4-[[3-(5-Ethoxypyridin-3-yl)-5-(trifluoromethyl)phenyl]methyl]piperazin-1-yl]-N-methylsulfonylpyridazine-3-carboxamide]
ASMS ratio (%) n = 1 [4]: 0.0%
ASMS ratio (%) n = 2 [5]: 0.0%

6-[4-[[2-(5-Ethoxypyridin-3-yl)phenyl]methyl]piperazin-1-yl]-N-propylpyridazine-3-carboxamide [Compound B1M043-01]
ASMS ratio (%) n = 1 [3]: 2.2%
